Our source for the IC50 values is patent US10287295B2, “TGF-β inhibitors” (Rigel Pharmaceuticals, Inc., priority 2015, dated 2019).

Each structure is given as a SMILES string. pIC50: −log10 of the molar value.

Test [1] deals with GDF8 signaling (GDF pSMAD, MPC11). The test is described as follows: AlphaScreen SureFire SMAD3 (p-Ser423/425) assay, inhibition of GDF8 signaling. It is filed as cell-based. As to conditions: Mus musculus, MPC-11, inhibition of GDF8 signaling, p-SMAD3 readout. (In general: In Alpha technology, singlet oxygen from a donor bead excites a nearby acceptor bead.)
Test [2] deals with TGF-β signaling (TGF-β pSMAD, MPC-11). The test is described as follows: AlphaScreen SureFire SMAD3 (p-Ser423/425) assay, inhibition of TGF-β signaling. The test is classed as cell-based. To be noted: Mus musculus, MPC-11, inhibition of TGF-β signaling, p-SMAD3 readout.

By pIC50 is commonly meant −log10 of the IC50, conventionally taken in molar units. Take `CCc1nc(-c2ccc(F)c(C)c2)c(-c2ccc3ncccc3c2)[nH]1` [Compound 111, 6-(2-Ethyl-4-(4-fluoro-3-methylphenyl)-1H-imidazol-5-yl)quinoline]: the pIC50 in test [1] was 6.10; in test [2], 5.35.
The like results for `CCc1nc(-c2ccc(F)c(C)c2)c(-c2ccc3nccnc3c2)[nH]1` [Compound 112, 6-(2-Ethyl-4-(4-fluoro-3-methylphenyl)-1H-imidazol-5-yl)quinoxaline] were, in that order, 6.55 and 5.86.
Regarding `CCc1nc(-c2cccc(C)c2)c(-c2ccc3[nH]ncc3c2)[nH]1` [Compound 113, 5-(2-Ethyl-4-(m-tolyl)-1H-imidazol-5-yl)-1H-indazole], the pIC50 in test [1] is 6.34; in test [2] it was 5.51.
The like results for `CCc1nc(-c2cccc(C)c2)c(-c2ccc3cn[nH]c3c2)[nH]1` [Compound 114, 6-(2-Ethyl-4-(m-tolyl)-1H-imidazol-5-yl)-1H-indazole] were, in that order, 6.74 and 5.95.
The like results for `CCc1nc(-c2cccc(C)c2)c(-c2ccc3ncnn3c2)[nH]1` [Compound 115, 6-(2-Ethyl-4-(m-tolyl)-1H-imidazol-5-yl)-[1,2,4]triazolo[1,5-a]pyridine] were, in that order, 6.80 and 6.12.
In the case of `CCc1nc(-c2cccc(C)c2)c(-c2ccc3ncsc3c2)[nH]1` [Compound 116, 6-(2-Ethyl-4-(m-tolyl)-1H-imidazol-5-yl)benzo[d]thiazole], the pIC50 in test [1] is 6.55; in test [2], 5.82.
The like results for `CCc1nc(-c2cccc(C)c2)c(-c2ccc3nccn3c2)[nH]1` [Compound 117, 6-(2-Ethyl-4-(m-tolyl)-1H-imidazol-5-yl)imidazo[1,2-a]pyridine] were, in that order, 6.48 and 5.66.
The like results for `CCc1nc(-c2cccc(C)c2)c(-c2ccc3nccnc3c2)[nH]1` [Compound 118, 6-(2-Ethyl-4-(m-tolyl)-1H-imidazol-5-yl)quinoxaline] were, in that order, 6.64 and 5.86.
The like results for `CCc1nc(-c2ccc(F)cc2)c(-c2ccc3[nH]ncc3c2)[nH]1` [Compound 119, 5-(2-Ethyl-4-(4-fluorophenyl)-1H-imidazol-5-yl)-1H-indazole] were, in that order, 6.39 and 5.32.
In the case of `CCc1nc(-c2ccc(F)cc2)c(-c2ccc3cn[nH]c3c2)[nH]1` [Compound 120, 6-(2-Ethyl-4-(4-fluorophenyl)-1H-imidazol-5-yl)-1H-indazole], the pIC50 in test [1] is 6.33; in test [2], 5.09.
The like results for `CCc1nc(-c2ccc(F)cc2)c(-c2ccc3ncnn3c2)[nH]1` [Compound 121, 6-(2-Ethyl-4-(4-fluorophenyl)-1H-imidazol-5-yl)-[1,2,4]triazolo[1,5-a]pyridine] were, in that order, 6.34 and 5.68.
With `CCc1nc(-c2ccc(F)cc2)c(-c2ccc3ncsc3c2)[nH]1` [Compound 122, 6-(2-Ethyl-4-(4-fluorophenyl)-1H-imidazol-5-yl)benzo[d]thiazole], the pIC50 in test [1] is 6.24; in test [2], 5.34.
The like results for `CCc1nc(-c2ccc(F)cc2)c(-c2ccc3nccn3c2)[nH]1` [Compound 123, 6-(2-Ethyl-4-(4-fluorophenyl)-1H-imidazol-5-yl)imidazo[1,2-a]pyridine] were, in that order, 6.13 and 5.03.
The like results for `CCc1nc(-c2cccc(Cl)c2)c(-c2ccc3[nH]ncc3c2)[nH]1` [Compound 124, 5-(4-(3-Chlorophenyl)-2-ethyl-1H-imidazol-5-yl)-1H-indazole] were, in that order, 6.27 and 5.87.
The like results for `CCc1nc(-c2cccc(Cl)c2)c(-c2ccc3ncnn3c2)[nH]1` [Compound 125, 6-(4-(3-Chlorophenyl)-2-ethyl-1H-imidazol-5-yl)-[1,2,4]triazolo[1,5-a]pyridine] were, in that order, 7.30 and 6.92.
For `CCc1nc(-c2cccc(Cl)c2)c(-c2ccc3ncsc3c2)[nH]1` [Compound 126, 6-(4-(3-Chlorophenyl)-2-ethyl-1H-imidazol-5-yl)benzo[d]thiazole], the results for the pIC50 in test [1] and in test [2] were 7.05 and 6.47, respectively.
The like results for `CCc1nc(-c2cccc(Cl)c2)c(-c2ccc3nccn3c2)[nH]1` [Compound 127, 6-(4-(3-Chlorophenyl)-2-ethyl-1H-imidazol-5-yl)imidazo[1,2-a]pyridine] were, in that order, 6.72 and 6.24.
The like results for `CCc1nc(-c2cccc(Cl)c2)c(-c2ccc3ncccc3c2)[nH]1` [Compound 128, 6-(4-(3-Chlorophenyl)-2-ethyl-1H-imidazol-5-yl)quinoline] were, in that order, 6.34 and 5.83.
As to `CCc1nc(-c2cccc(Cl)c2)c(-c2ccc3nccnc3c2)[nH]1` [Compound 129, 6-(4-(3-Chlorophenyl)-2-ethyl-1H-imidazol-5-yl)quinoxaline], the pIC50 in test [1] is 6.54; in test [2] it was 5.87.
The like results for `CCc1nc(-c2ccc(F)c(F)c2)c(-c2ccc3[nH]ncc3c2)[nH]1` [Compound 130, 5-(4-(3,4-Difluorophenyl)-2-ethyl-1H-imidazol-5-yl)-1H-indazole] were, in that order, 6.19 and 5.63.
The like results for `CCc1nc(-c2ccc(F)c(F)c2)c(-c2ccc3cn[nH]c3c2)[nH]1` [Compound 131, 6-(4-(3,4-Difluorophenyl)-2-ethyl-1H-imidazol-5-yl)-1H-indazole] were, in that order, 6.04 and 5.41.
The like results for `CCc1nc(-c2ccc(F)c(F)c2)c(-c2ccc3ncnn3c2)[nH]1` [Compound 132, 6-(4-(3,4-Difluorophenyl)-2-ethyl-1H-imidazol-5-yl)-[1,2,4]triazolo[1,5-a]pyridine] were, in that order, 6.26 and 5.86.
On to `CCc1nc(-c2ccc(F)c(F)c2)c(-c2ccc3ncsc3c2)[nH]1` [Compound 133, 6-(4-(3,4-Difluorophenyl)-2-ethyl-1H-imidazol-5-yl)benzo[d]thiazole], for which the pIC50 in test [1] is 6.44; in test [2] it was 5.66.
With `CCc1nc(-c2ccc(F)c(F)c2)c(-c2ccc3nccn3c2)[nH]1` [Compound 134, 6-(4-(3,4-Difluorophenyl)-2-ethyl-1H-imidazol-5-yl)imidazo[1,2-a]pyridine], the results for the pIC50 in test [1] and in test [2] were 6.06 and 5.60, respectively.
In the case of `CCc1nc(-c2ccc(F)c(F)c2)c(-c2ccc3nccnc3c2)[nH]1` [Compound 135, 6-(4-(3,4-Difluorophenyl)-2-ethyl-1H-imidazol-5-yl)quinoxaline], the pIC50 in test [1] is 6.11; in test [2], 5.47.
The like results for `CCc1nc(-c2cccc(F)c2)c(-c2ccc3ncnn3c2)[nH]1` [Compound 136, 6-(2-Ethyl-4-(3-fluorophenyl)-1H-imidazol-5-yl)-[1,2,4]triazolo[1,5-a]pyridine] were, in that order, 6.12 and 5.64.
The like results for `CCc1nc(-c2cccc(F)c2)c(-c2ccc3ncsc3c2)[nH]1` [Compound 137, 6-(2-Ethyl-4-(3-fluorophenyl)-1H-imidazol-5-yl)benzo[d]thiazole] were, in that order, 6.24 and 5.60.
The like results for `CCc1nc(-c2cccc(F)c2)c(-c2ccc3nccn3c2)[nH]1` [Compound 138, 6-(2-Ethyl-4-(3-fluorophenyl)-1H-imidazol-5-yl)imidazo[1,2-a]pyridine] were, in that order, 6.14 and 5.49.
Take `CCc1nc(-c2cc(F)cc(Cl)c2)c(-c2ccc3[nH]ncc3c2)[nH]1` [Compound 139, 5-(4-(3-Chloro-5-fluorophenyl)-2-ethyl-1H-imidazol-5-yl)-1H-indazole]: the pIC50 in test [1] was 6.19; in test [2] it was 5.69.
In the case of `CCc1nc(-c2cc(F)cc(Cl)c2)c(-c2ccc3ncsc3c2)[nH]1` [Compound 140, 6-(4-(3-Chloro-5-fluorophenyl)-2-ethyl-1H-imidazol-5-yl)benzo[d]thiazole], the values for the pIC50 in test [1] and in test [2] were 6.21 and 5.65, respectively.
With `CCc1nc(-c2cc(F)cc(Cl)c2)c(-c2ccc3nccnc3c2)[nH]1` [Compound 141, 6-(4-(3-Chloro-5-fluorophenyl)-2-ethyl-1H-imidazol-5-yl)quinoxaline], the values for the pIC50 in test [1] and in test [2] were 6.18 and 5.54, respectively.
The like results for `CCc1nc(-c2cc(C)cc(F)c2)c(-c2ccc3[nH]ncc3c2)[nH]1` [Compound 142, 5-(2-Ethyl-4-(3-fluoro-5-methylphenyl)-1H-imidazol-5-yl)-1H-indazole] were, in that order, 6.17 and 5.36.
The like results for `CCc1nc(-c2cc(C)cc(F)c2)c(-c2ccc3cn[nH]c3c2)[nH]1` [Compound 143, 6-(2-Ethyl-4-(3-fluoro-5-methylphenyl)-1H-imidazol-5-yl)-1H-indazole] were, in that order, 6.35 and 5.50.
For the molecule `CCc1nc(-c2cc(C)cc(F)c2)c(-c2ccc3ncnn3c2)[nH]1` [Compound 144, 6-(2-Ethyl-4-(3-fluoro-5-methylphenyl)-1H-imidazol-5-yl)-[1,2,4]triazolo[1,5-a]pyridine], the values for the pIC50 in test [1] and in test [2] were 6.51 and 5.82, respectively.
The like results for `CCc1nc(-c2cc(C)cc(F)c2)c(-c2ccc3ncsc3c2)[nH]1` [Compound 145, 6-(2-Ethyl-4-(3-fluoro-5-methylphenyl)-1H-imidazol-5-yl)benzo[d]thiazole] were, in that order, 6.28 and 5.53.
The like results for `CCc1nc(-c2cc(C)cc(F)c2)c(-c2ccc3nccn3c2)[nH]1` [Compound 146, 6-(2-Ethyl-4-(3-fluoro-5-methylphenyl)-1H-imidazol-5-yl)imidazo[1,2-a]pyridine] were, in that order, 6.00 and 5.22.
For the molecule `CCc1nc(-c2cc(C)cc(F)c2)c(-c2ccc3nccnc3c2)[nH]1` [Compound 147, 6-(2-Ethyl-4-(3-fluoro-5-methylphenyl)-1H-imidazol-5-yl)quinoxaline], the values for the pIC50 in test [1] and in test [2] were 6.26 and 5.66, respectively.
